Assays:
[1] = target: T1, MAP/microtubule affinity-regulating kinase 4 (Homo sapiens) (UniProt Q96L34); experiment: Selectivity interaction (KinomeScan (DiscoverX)) EUB0000229b MARK4; conditions: at 10 µM
T1 sequence (whole entry): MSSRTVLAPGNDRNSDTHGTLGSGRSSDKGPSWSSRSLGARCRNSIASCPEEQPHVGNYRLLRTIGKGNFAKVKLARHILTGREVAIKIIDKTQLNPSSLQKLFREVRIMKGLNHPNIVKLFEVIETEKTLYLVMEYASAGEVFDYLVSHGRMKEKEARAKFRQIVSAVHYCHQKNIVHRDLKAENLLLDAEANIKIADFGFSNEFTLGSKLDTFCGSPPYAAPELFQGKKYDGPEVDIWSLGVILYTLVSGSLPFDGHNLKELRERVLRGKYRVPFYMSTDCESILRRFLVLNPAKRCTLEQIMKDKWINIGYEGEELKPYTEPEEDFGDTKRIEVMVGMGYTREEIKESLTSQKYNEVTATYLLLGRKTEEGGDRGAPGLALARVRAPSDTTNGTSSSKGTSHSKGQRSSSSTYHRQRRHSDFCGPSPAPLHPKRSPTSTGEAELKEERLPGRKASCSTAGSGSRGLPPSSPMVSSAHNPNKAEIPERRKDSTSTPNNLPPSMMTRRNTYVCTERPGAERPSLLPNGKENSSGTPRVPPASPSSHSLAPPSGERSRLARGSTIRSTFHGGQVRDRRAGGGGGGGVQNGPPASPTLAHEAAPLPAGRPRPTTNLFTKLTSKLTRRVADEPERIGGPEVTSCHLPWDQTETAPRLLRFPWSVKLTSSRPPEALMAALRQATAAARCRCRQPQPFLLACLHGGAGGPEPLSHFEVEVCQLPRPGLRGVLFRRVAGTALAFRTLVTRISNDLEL

Misshapen-like kinase 1 = Misshapen-like kinase 1 (Homo sapiens, UniProt Q8N4C8); experiment: Selectivity interaction (KinomeScan (DiscoverX)) EUB0001079a MINK1; conditions: at 1 µM
Sequence of Misshapen-like kinase 1 (Q8N4C8 whole entry, looked up): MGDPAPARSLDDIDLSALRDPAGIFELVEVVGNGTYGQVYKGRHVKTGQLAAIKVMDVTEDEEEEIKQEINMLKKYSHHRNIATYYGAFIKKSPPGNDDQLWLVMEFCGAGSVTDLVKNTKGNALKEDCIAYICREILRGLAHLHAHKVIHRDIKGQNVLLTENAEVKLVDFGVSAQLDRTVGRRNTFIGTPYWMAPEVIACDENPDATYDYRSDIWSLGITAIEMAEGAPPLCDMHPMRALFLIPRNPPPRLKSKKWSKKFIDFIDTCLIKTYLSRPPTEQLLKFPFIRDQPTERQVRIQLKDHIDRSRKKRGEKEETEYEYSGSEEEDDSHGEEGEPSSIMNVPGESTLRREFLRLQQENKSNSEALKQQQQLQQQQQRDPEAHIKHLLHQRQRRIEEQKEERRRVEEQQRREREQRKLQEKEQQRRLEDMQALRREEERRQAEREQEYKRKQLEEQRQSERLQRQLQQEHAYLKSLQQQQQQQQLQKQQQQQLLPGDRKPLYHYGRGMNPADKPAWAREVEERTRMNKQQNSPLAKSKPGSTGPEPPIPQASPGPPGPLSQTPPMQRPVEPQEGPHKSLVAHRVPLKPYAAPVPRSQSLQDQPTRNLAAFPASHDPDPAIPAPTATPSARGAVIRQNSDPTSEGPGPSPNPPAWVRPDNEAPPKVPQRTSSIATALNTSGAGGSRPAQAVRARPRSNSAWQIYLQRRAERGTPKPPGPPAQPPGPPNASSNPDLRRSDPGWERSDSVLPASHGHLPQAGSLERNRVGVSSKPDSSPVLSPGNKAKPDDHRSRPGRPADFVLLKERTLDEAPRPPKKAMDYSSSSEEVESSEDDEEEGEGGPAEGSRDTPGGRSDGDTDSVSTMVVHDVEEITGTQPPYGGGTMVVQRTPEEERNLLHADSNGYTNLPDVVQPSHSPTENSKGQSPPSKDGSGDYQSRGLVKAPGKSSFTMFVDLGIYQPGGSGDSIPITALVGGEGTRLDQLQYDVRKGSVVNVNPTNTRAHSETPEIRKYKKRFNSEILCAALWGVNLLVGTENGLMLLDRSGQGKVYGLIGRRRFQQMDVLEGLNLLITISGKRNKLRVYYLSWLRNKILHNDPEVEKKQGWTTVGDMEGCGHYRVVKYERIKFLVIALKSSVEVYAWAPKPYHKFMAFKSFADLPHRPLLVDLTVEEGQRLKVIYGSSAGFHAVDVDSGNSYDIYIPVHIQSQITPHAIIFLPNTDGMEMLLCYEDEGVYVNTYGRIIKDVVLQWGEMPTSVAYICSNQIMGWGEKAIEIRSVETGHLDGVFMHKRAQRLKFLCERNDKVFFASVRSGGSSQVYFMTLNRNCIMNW

[2] = target: Wee1-like protein kinase 2 (Homo sapiens) (UniProt P0C1S8); experiment: Selectivity interaction (KinomeScan (DiscoverX)) EUB0001079a WEE2; conditions: at 1 µM
Sequence of Wee1-like protein kinase 2 (Homo sapiens) (P0C1S8 whole entry, looked up): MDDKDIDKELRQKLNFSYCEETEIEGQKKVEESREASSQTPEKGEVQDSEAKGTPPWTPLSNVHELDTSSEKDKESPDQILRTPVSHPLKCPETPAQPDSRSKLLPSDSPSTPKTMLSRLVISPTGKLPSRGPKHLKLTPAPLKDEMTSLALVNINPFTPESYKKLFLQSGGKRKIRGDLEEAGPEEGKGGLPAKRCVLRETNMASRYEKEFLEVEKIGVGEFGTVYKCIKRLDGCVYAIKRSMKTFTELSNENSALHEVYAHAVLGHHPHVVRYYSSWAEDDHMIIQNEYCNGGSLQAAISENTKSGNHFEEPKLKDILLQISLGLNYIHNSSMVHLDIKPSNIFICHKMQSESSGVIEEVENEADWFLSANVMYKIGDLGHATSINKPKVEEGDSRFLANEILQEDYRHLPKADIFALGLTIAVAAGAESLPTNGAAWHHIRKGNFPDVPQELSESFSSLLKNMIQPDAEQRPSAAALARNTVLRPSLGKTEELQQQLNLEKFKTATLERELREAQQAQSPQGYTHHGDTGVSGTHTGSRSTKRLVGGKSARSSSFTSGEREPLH

[3] = target: T2, Cytoplasmic tyrosine-protein kinase BMX (Homo sapiens) (UniProt P51813); experiment: Selectivity interaction (Upstate Kinase Profiler service (Millipore)) EUB0000056c BMX; conditions: at 1 µM
T2 sequence (whole entry): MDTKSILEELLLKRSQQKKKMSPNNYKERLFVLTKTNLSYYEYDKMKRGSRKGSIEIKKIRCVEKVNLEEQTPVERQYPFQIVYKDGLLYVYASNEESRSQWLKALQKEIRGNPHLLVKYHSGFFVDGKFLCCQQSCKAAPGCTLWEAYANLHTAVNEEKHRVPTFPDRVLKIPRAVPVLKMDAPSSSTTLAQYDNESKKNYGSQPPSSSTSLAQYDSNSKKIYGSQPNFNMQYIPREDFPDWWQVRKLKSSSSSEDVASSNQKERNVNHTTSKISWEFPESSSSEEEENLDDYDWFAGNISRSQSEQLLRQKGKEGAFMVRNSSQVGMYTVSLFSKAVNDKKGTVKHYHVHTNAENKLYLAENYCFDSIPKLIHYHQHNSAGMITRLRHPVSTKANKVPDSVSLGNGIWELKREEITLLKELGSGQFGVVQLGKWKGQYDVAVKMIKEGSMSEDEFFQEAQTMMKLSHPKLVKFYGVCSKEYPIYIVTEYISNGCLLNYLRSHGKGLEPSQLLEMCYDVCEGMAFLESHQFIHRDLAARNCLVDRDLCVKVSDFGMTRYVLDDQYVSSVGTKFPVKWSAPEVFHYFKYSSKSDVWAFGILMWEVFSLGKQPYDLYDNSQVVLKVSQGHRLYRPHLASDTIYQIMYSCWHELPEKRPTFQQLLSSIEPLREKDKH

[4] = target: Serine/threonine-protein kinase PAK 3 (Homo sapiens) (UniProt O75914); experiment: Selectivity interaction (Upstate Kinase Profiler service (Millipore)) EUB0000056c PAK3; conditions: at 1 µM
Sequence of Serine/threonine-protein kinase PAK 3 (Homo sapiens) (O75914 whole entry, looked up): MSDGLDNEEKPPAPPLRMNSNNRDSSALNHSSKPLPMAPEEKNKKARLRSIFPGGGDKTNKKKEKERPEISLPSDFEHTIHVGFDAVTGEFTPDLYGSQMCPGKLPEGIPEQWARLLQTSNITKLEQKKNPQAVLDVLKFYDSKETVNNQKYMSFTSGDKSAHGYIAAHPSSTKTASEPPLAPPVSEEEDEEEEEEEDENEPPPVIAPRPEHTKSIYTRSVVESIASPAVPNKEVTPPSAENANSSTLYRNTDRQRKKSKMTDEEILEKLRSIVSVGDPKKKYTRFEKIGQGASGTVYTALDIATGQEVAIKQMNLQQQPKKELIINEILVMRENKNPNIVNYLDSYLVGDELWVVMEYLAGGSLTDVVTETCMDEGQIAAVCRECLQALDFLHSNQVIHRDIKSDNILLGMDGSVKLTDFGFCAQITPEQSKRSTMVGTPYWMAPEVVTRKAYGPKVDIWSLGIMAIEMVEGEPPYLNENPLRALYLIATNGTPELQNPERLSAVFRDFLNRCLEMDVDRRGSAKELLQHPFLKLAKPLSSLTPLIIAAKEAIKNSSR

[5] = target: Calcium/calmodulin-dependent protein kinase type II subunit gamma (Homo sapiens) (UniProt Q13555); experiment: Selectivity interaction (ActivX KiNativ screen (ex vivo kinase selectivity in human PBMCs)) EUB0001619a CAMK2G; assay type: cell-based; conditions: PBMC, at 1 µM
Sequence of Calcium/calmodulin-dependent protein kinase type II subunit gamma (Homo sapiens) (Q13555 whole entry): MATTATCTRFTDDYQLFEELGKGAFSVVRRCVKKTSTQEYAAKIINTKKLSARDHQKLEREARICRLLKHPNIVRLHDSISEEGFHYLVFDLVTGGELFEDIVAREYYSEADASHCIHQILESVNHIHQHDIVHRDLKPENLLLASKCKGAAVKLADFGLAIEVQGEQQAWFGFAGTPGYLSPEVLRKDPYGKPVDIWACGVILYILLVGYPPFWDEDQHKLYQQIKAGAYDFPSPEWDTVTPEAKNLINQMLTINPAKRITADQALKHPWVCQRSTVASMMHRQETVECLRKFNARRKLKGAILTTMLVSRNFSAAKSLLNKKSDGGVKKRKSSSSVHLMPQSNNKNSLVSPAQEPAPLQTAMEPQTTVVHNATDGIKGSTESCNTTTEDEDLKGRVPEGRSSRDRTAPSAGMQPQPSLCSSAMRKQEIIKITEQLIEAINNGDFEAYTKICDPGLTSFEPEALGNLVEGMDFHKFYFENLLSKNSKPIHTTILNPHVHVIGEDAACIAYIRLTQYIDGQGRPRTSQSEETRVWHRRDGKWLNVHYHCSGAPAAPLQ

[6] = target: Serine/threonine-protein kinase RIO2 (Homo sapiens) (UniProt Q9BVS4); experiment: Selectivity interaction (KinomeScan (DiscoverX)) EUB0000655a RIOK2; conditions: at 10 µM
Sequence of Serine/threonine-protein kinase RIO2 (Homo sapiens) (Q9BVS4 whole entry, looked up): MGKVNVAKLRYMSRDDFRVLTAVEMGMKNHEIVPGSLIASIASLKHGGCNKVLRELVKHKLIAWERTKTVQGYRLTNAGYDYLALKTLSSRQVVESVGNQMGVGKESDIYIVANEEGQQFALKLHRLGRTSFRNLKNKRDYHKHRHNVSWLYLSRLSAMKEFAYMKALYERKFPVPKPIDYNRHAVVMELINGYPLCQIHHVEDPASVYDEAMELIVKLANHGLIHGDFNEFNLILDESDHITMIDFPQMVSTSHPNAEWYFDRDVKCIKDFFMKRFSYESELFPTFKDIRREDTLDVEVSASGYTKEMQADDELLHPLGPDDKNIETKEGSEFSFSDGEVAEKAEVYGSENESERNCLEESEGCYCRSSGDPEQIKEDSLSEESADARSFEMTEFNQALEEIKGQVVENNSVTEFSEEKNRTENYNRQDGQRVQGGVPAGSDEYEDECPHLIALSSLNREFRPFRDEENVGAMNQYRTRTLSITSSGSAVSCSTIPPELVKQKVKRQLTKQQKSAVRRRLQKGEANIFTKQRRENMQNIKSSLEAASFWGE

SRSF protein kinase 1 = SRSF protein kinase 1 (Homo sapiens, UniProt Q96SB4); experiment: Selectivity interaction (KinomeScan (DiscoverX)) EUB0000092b SRPK1; conditions: at 10 µM
Sequence of SRSF protein kinase 1 (Q96SB4 whole entry): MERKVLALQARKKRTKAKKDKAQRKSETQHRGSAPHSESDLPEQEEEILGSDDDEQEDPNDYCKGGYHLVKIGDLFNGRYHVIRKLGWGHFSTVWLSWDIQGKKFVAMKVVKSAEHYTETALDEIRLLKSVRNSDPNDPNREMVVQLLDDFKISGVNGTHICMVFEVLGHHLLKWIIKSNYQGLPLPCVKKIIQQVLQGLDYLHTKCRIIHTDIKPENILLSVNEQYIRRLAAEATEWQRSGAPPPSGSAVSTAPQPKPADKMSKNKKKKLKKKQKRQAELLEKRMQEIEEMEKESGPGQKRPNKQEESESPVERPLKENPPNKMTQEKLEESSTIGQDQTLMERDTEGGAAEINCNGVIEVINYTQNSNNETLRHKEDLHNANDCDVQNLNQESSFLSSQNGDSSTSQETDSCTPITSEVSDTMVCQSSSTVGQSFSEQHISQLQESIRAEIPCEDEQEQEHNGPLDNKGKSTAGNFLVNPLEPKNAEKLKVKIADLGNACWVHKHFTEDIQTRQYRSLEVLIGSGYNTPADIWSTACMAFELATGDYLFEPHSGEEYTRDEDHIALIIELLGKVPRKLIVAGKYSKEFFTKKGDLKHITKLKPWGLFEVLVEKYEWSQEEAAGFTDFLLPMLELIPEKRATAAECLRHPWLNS

[7] = target: T3, Aurora kinase C (Homo sapiens) (UniProt Q9UQB9); experiment: Selectivity interaction (Ambit KINOMEscan and KiNATiv profiling in Jurkat cells) EUB0000090b AURKC; assay type: cell-based; conditions: at 1 µM
T3 sequence (whole entry): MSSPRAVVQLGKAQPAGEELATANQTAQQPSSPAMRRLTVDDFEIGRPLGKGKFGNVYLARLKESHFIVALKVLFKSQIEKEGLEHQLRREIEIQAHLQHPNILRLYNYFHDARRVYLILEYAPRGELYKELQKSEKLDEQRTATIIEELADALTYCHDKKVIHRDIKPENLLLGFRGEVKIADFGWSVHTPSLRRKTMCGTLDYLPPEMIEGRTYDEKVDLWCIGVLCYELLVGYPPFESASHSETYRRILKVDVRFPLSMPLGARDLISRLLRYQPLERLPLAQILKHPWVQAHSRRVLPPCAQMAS

## COc1cc(N(C)c2ccnc3ccc(C(F)(F)F)cc23)cc(OC)c1OC
[1]
  % binding: 87%

## Nc1cnc(N2CCc3cc(S(=O)(=O)Nc4c(F)cc(Cl)cc4F)cc(N4CCCC4=O)c32)nc1 [TP-020n]
Misshapen-like kinase 1
  % of control: 100%
[2]
  % of control: 93%

## Cc1ccc(-c2ccc3c(ccc4sc5c(c43)NC[C@@H](C)NC5=O)n2)cn1
[3]
  % of inhibition: 4%
[4]
  % of inhibition: 37%

## N#Cc1cccc(-c2c[nH]c3ncnc(N4CCOCC4)c23)c1
[5]
  % of inhibition: 3%

## CN(C)CCOc1ccc(-c2nc(-c3ccncc3)c(-c3ccc4c(c3)CC/C4=N\O)[nH]2)cc1
[6]
  % of control: 6%

## CCC(=O)N1CCN(c2ccc(-n3c(=O)ccc4cnc5ccc(-c6cnc7ccccc7c6)cc5c43)cc2C(F)(F)F)CC1
SRSF protein kinase 1
  % of control: 100%

## CN(C)C/C=C/C(=O)Nc1ccc(C(=O)N2CCCC(Nc3ncc(Cl)c(-c4c[nH]c5ccccc45)n3)C2)cc1 (centres undefined)
[7]
  % of control: 100%

From ChEMBL document CHEMBL5465560, “Selectivity Literature for EUbOPEN Chemogenomic Library” (2024)
